Patent publication US20120167671A1, “METHOD AND APPARATUS FOR TESTING TRANSDERMAL MEDICAMENTS” (EGIS GYOGYSZERGYAR NYILVANOSAN MUKODO RESZVENYTARSASAG, priority 2009, published 2012)

Assay: Membrane penetration testing of piroxicam-containing cream, human skin membrane, test series (II)
Type: in vitro ADME
Conditions: 1% piroxicam cream, 34° C., no air flow
Experimental: In the test, the acceptor phase comprises 0.9 weight % sodium chloride solution. The flow rate of the acceptor phase is 0.3 ml/min. During the first test series (I), a cellophane membrane, during the second test series (II), a human skin membrane was used. Temperature of the cell was kept at 34° C. During both test series, the cell was exposed to natural sunlight. No air flow was applied. The membrane was allowed to stabilize for 60 minutes. After the stabilization period, 300 to 400 mg of test preparation measured by analytical precision are applied to the membrane homogeneously in 2-3 seconds. The flow of the acceptor phase is resumed and effluent fractions for periods of 30 minute each are collected. […] The high-performance liquid chromatographic analysis is carried out using external standard method in a reversed phase system. The separation is carried out using a Nucleosil C18 (250 mm×4.6 mm i.d.) column and a buffer-acetonitrile-methanol (1000:660:340, v/v/v) mobile phase. The separation is performed at the temperature of 40° C. Flow rate of the mobile phase is 1.0 ml/min. Detection is carried out by ultraviolet photodiode array detector in the wavelength range of 250 to 450 nm.

- Cumulative amount of dissolved piroxicam, % Series (II) (fraction 1, 0-30 min): 0.00%
- Cumulative amount of dissolved piroxicam, % Series (II) (fraction 2, 30-60 min): 0.00%
- Cumulative amount of dissolved piroxicam, % Series (II) (fraction 3, 60-90 min): 0.00%
- Cumulative amount of dissolved piroxicam, % Series (II) (fraction 4, 90-120 min): 0.00%
- Cumulative amount of dissolved piroxicam, % Series (II) (fraction 5, 120-150 min): 0.01%
- Cumulative amount of dissolved piroxicam, % Series (II) (fraction 6, 150-180 min): 0.02%
- Cumulative amount of dissolved piroxicam, % Series (II) (fraction 7, 180-210 min): 0.02%
- Cumulative amount of dissolved piroxicam, % Series (II) (fraction 8, 210-240 min): 0.03%
- Cumulative amount of dissolved piroxicam, % Series (II) (fraction 9, 240-270 min): 0.04%
- Cumulative amount of dissolved piroxicam, % Series (II) (fraction 10, 270-300 min): 0.05%
- Cumulative amount of dissolved piroxicam, % Series (II) (fraction 11, 300-330 min): 0.05%
- Cumulative amount of dissolved piroxicam, % Series (II) (fraction 12, 330-360 min): 0.06%
Compound: CN1C(C(=O)Nc2ccccn2)=C(O)c2ccccc2S1(=O)=O [piroxicam]
